Data from patent publication US20070117770A1, “Human ribosomal DNA (rDNA) and ribosomal RNA (rRNA) nucleic acids and uses thereof” (Cylene Pharmaceuticals, Inc., priority 2005, published 2007).

Legend:
Experiment in all cases: Protein kinase inhibition assay
Abl(m) = Abl(m) (Mus musculus, UniProt P00520); assay type: biochemical; conditions: read-out: percent residual activity of Abl(m)
Experimental: (§1) Certain compounds were tested for activity in protein kinase inhibition assays. All substrates were dissolved and diluted to working stocks in de-ionized water, apart from histone H1 (10× working stock in 20 mM MOPS pH 7.0), PDKtide (10× working stock in 50 mM Tris pH 7.0) ATF2 (which is typically stored at a 20× working stock in 50 mM Tris pH 7.5, 150 mM NaCl, 0.1 mM EGTA, 0.03% Brij-35, 50% glycerol, 1 mM benzamidine, 0.2 mM PMSF and 0.1% R-mercaptoethanol), KKLNRTLSFAEPG (SEQ ID NO:203) and RRRLSFAEPG (SEQ ID NO:204) (50 mM HEPES pH 7.4) and GGEEEEYFELVKKKK (SEQ ID NO:205) (20 mM MOPS pH 7.0). All kinases were pre-diluted to a 10× working concentration prior to addition into the assay. The composition of the dilution buffer for each kinase is detailed below.
(§2) In a final reaction volume of 25 μl, Abl (m) (5-10 mU) is incubated with 8 mM MOPS pH 7.0, 0.2 mM EDTA, 50 μM EAIYAAPFAKKK (SEQ ID NO:206), 10 mM MgAcetate and [gamma-33P-ATP] (specific activity approx. 500 cpm/pmol, concentration as required). The reaction is initiated by the addition of the MgATP mix. After incubation for 40 minutes at room temperature, the reaction is stopped by the addition of 5 μl of a 3% phosphoric acid solution. 10 μl of the reaction is then spotted onto a P30 filtermat and washed three times for 5 minutes in 75 mM phosphoric acid and once in methanol prior to drying and scintillation counting.

AMPK(r) = assay type: biochemical, rat; conditions: 2.5 μM
Experimental: as §1
In a final reaction volume of 25 μl, AMPK (r) (5-10 mU) is incubated with 32 mM HEPES pH 7.4, 0.65 mM DTT, 0.012% Brij-35, 200 μM AMP, 200 μM AMARAASAAALARRR (SEQ ID NO:208), 10 mM MgAcetate and [gamma-33P-ATP] (specific activity approx. 500 cpm/pmol, concentration as required). The reaction is initiated by the addition of the MgATP mix. After incubation for 40 minutes at room temperature, the reaction is stopped by the addition of 5 μl of a 3% phosphoric acid solution. […]

MST2(h) = MST2(h) (Homo sapiens, UniProt Q13188); assay type: biochemical; conditions: read-out: percent residual activity of MST2(h)
Experimental: as §1
as §2, with “MST2 (h)” for “Abl (m)”, “0.33 mg/ml myelin basic protein,” for “50 μM EAIYAAPFAKKK (SEQ ID NO:206),”

PKCζ(h) = PKCζ(h) (Homo sapiens, UniProt Q05513); assay type: biochemical; conditions: read-out: percent residual activity of PKCζ(h)
Experimental: as §1
as §2, with “PKCξ (h)” for “Abl (m)”, “ERMRPRKRQGSVRRRV” for “EAIYAAPFAKKK”, “NO:224),” for “NO:206),”

Rsk2(h) = Rsk2(h) (Homo sapiens, UniProt P51812); assay type: biochemical; conditions: read-out: percent residual activity of Rsk2(h)
Experimental: as §1
as §2, with “μl, Rsk2 (h)” for “μl, Abl (m)”, “EDTA, 30” for “EDTA, 50”, “μM KKKNRTLSVA” for “μM EAIYAAPFAKKK”, “ID NO:212),” for “ID NO:206),”

ZIPK(h) = ZIPK(h) (Homo sapiens, UniProt O43293); assay type: biochemical; conditions: read-out: percent residual activity of ZIPK(h)
Experimental: as §1
as §2, with “μl, ZIPK (h)” for “μl, Abl (m)”, “EDTA, 250” for “EDTA, 50”, “μM KKLNRTLSFAEPG” for “μM EAIYAAPFAKKK”, “ID NO:203),” for “ID NO:206),”

ZIPK(h), sequence (O43293 whole entry): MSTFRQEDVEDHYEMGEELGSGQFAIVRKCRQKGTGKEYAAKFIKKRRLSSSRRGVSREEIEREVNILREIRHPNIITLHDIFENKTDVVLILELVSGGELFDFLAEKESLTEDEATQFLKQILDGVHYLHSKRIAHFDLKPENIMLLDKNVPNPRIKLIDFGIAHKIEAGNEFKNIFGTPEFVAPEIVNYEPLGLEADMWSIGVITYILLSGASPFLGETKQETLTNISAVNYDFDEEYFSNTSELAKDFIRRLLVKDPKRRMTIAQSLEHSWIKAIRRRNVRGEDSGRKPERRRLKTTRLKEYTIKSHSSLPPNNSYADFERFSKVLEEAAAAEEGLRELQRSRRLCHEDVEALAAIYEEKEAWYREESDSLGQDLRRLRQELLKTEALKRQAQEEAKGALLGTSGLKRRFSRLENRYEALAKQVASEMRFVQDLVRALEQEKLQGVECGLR
Abl(m), sequence (P00520 whole entry): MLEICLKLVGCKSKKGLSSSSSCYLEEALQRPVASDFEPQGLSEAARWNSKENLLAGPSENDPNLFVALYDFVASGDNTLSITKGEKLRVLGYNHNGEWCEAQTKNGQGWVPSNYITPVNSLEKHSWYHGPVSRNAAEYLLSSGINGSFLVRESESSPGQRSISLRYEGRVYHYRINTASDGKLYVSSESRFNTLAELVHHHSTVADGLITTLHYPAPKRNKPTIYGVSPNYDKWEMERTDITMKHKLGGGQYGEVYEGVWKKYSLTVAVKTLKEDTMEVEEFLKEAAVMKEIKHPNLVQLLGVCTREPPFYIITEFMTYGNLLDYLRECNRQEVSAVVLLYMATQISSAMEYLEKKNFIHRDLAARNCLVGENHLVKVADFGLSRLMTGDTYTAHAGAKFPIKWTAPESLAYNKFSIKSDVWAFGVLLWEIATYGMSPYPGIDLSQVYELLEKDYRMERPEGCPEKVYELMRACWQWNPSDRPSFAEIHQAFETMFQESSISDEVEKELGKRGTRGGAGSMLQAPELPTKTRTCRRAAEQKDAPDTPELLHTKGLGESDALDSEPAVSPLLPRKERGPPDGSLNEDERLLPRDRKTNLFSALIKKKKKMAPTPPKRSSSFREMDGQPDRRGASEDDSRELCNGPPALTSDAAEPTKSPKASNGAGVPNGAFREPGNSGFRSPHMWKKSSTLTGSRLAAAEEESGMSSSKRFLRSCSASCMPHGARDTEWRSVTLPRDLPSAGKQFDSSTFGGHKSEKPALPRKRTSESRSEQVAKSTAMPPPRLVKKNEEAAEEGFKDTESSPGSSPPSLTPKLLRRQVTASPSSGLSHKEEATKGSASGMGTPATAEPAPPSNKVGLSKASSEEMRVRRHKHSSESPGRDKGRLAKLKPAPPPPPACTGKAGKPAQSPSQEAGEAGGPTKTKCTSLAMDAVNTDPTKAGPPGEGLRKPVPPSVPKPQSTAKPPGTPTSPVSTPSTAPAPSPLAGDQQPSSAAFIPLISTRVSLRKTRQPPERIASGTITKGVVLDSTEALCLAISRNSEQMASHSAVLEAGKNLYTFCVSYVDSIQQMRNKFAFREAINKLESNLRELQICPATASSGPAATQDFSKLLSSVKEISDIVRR
Rsk2(h), sequence (P51812 whole entry): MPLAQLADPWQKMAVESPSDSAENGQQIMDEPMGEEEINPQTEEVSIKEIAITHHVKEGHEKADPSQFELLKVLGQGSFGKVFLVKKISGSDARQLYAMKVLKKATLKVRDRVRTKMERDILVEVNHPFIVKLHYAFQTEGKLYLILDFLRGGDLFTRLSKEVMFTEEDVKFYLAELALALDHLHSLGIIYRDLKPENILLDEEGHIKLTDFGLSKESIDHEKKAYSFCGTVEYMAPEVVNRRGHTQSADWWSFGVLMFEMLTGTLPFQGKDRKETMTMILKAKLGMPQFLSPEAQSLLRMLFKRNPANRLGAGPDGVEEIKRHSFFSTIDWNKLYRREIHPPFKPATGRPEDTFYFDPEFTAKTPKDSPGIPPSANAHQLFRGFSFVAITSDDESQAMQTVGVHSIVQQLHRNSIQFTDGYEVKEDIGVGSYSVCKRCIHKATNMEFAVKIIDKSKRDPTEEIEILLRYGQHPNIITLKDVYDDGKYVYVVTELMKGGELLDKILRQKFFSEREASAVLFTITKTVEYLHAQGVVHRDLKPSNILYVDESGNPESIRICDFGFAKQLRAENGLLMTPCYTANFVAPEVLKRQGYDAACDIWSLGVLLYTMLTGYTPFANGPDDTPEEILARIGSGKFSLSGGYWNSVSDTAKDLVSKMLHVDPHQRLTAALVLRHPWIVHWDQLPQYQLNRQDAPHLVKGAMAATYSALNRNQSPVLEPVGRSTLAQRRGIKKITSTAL
MST2(h), sequence (Q13188 whole entry): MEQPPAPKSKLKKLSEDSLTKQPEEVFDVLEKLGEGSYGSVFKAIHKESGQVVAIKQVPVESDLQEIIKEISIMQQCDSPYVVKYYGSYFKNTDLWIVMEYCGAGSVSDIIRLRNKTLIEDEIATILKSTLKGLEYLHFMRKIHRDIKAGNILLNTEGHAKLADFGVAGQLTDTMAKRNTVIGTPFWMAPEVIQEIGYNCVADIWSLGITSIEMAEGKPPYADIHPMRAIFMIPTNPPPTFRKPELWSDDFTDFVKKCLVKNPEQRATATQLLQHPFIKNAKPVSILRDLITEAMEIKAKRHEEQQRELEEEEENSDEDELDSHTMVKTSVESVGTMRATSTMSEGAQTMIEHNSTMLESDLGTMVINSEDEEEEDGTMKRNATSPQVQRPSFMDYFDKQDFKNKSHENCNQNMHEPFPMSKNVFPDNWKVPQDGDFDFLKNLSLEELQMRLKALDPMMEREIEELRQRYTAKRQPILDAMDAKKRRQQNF
PKCζ(h), sequence (Q05513 whole entry): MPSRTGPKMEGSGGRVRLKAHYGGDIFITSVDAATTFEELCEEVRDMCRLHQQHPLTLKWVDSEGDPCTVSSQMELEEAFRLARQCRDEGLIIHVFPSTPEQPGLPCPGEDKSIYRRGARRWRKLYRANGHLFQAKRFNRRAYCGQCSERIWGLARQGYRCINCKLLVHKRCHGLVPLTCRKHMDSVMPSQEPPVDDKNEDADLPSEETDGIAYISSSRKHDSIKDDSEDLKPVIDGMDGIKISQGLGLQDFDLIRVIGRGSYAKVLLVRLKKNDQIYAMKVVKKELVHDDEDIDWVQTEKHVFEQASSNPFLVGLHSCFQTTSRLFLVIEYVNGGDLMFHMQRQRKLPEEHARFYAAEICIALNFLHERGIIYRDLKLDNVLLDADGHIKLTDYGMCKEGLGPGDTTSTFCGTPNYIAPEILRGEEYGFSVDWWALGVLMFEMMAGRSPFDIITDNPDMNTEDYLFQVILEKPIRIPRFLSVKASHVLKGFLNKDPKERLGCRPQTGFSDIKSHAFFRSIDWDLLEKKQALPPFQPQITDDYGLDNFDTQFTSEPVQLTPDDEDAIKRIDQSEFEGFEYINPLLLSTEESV

| remaining activity at 2.5 µM (Abl(m)) [%] | percent residual activity of AMPK(r) (AMPK(r)) [%] | remaining activity at 2.5 µM (MST2(h)) [%] | remaining activity at 2.5 µM (PKCζ(h)) [%] | remaining activity at 2.5 µM (Rsk2(h)) [%] | remaining activity at 2.5 µM (ZIPK(h)) [%] | Structure (SMILES) |
| --- | --- | --- | --- | --- | --- | --- |
| 9 | 82 | 76 | 56 | 60 | 27 | CN1CCCC1CCNC(=O)c1cn2c3c(c(N4CCC(c5cnccn5)C4)c(F)cc3c1=O)Oc1cc3ccccc3cc1-2 (stereo not drawn) [Compound A-1] |
| 104 | 95 | 106 | 113 | 106 | 116 | CC(=O)N1CCN(c2ccc3c(=O)c(C(=O)NCCN4CCCC4)c4n(C)c5ccccc5n4c3n2)CC1 [Compound B-1] |
